From patent publication US12612410B2 (CHILDREN'S HOSPITAL MEDICAL CENTER, priority 2020, dated 2026)

Test system: MOLM14 (D835Y) cells
Assay: Combination drug screening with Venetoclax in MOLM14 (D835Y) cells
Assay type: cell-based
Design: key to Sum Excess HSA: negative = synergy, positive = antagonism with Venetoclax; relative score
Conditions: 10 × 10 dataset; for Sum Excess HSA: combination with Venetoclax, 48 hours
Procedure: Combination drug therapy has the potential to produce enhanced effects with lower side effects not obtained using either agent alone, or beyond the additive effect of the different concentrations of the two different agents. To determine whether enhanced effects are observed in different drug combinations in the setting of FLT3 resistance, combination drug screening was performed as previously described (Mathews-Griner, L. A. et al., Proc. Nat. Acad. Sci., 2014, 111:2439-2454; Lin, G. L. et al., Sci. Trans. Med., 2019, 11:eaaw0064). Briefly, 10 nL of compounds were acoustically dispensed into 1536-well white polystyrene tissue culture-treated plates with an Echo 550 acoustic liquid handler (Labcyte). MOLM14 (D835Y) Cells were then added to compound-containing plates at a density of 500-cells/well in 5 μL of medium. A 10-point custom concentration range was used for all listed drugs. Plates were incubated for 48 hours at standard incubator conditions covered by a stainless steel gasketed lid to prevent evaporation. 48 h post compound addition, 3 μL of Cell Titer Glo (Promega) were added to each well and plates were incubated at room temperature for 15 minutes with the stainless-steel lid in place. Luminescence readings were taken using a Viewlux imager (PerkinElmer) with a 2 second exposure time per plate.
The sum excess HSA scores for Compounds 25, 31, 35, 50, 51, 80, 82, 97, 118, and 119 in Table 28 are used herein to quantitate drug interactions for enhanced pharmacological effects in the MOLM14 (D835Y) cell line. This is a FLT3-ITD cell line that harbors a FLT3 resistance mutation in the tyrosine kinase domain at position 835 (D835Y). More information on excess HSA scores can be found in Vlot, Anna H. C. et al., Drug Discovery Today, 2019, 24(12):2286-2298. […] However, different methodologies may yield different numerical scores, and different definitions of what constitutes a deviation from mere additivity vs true drug synergy. Table 28 summarizes the combination results of Compounds 25, 31, 35, 50, 51, 80, 82, 97, 118, and 119 with Venetoclax. A large negative sum excess HSA score indicates profound synergism with Venetoclax, whereas a positive excess HSA score indicates antagonism with Venetoclax in certain drug combinations.
The degree to which combination therapy has to potential to produce enhanced effects with lower side effects not obtained using either agent alone, or beyond the additive effect of the different concentrations of the two different agents depends on the nature of the drugs used in the combination, and the specific doses/concentrations at which they are ultimately used in the therapeutic regimen. A negative excess sum HSA score illustrates that the drug combination is better than either drug alone (at the concentrations being studied), and the sum excess HSA score is a measurement of the overall deviation from additivity that is observed across the entire matrix of concentrations studied. […] However, the utility in certain drug combinations vs others should not be distinguished based on cutoffs between excess sum HSA scores, because the score itself is only a relative indicator that is completely dependent on experimental design and is not an absolute number. Furthermore, the concept of what constitutes clinically meaningful drug synergy is something that is still being debated, not only between pharmacologists and physicians, but amongst pharmacologists themselves. The data in Table 28 illustrate that the nature of the combined effect is dependent on the characteristics of each individual compound, as not every compound produced a synergistic interaction in combination with Venetoclax.

Row | SMILES | Sum Excess HSA | Interaction with Venetoclax
1 | CC(O)(c1cn2c(-c3cccc(N[C@H]4CNCC[C@@H]4F)n3)cnc2cn1)C(F)(F)F (single isomer, unassigned) [Compound 80] | −261.7 | –
2 | O=S1(=O)CCCN1c1cn2c(-c3cccc(N[C@H]4CNCC[C@@H]4F)n3)cnc2cn1 [Compound 97, 2-(3-(6-(((3S,4S)-4-fluoropiperidin-3-yl)amino)pyridin-2-yl)imidazo[1,2-a]pyrazin-6-yl)isothiazolidine 1,1-dioxide] | −171.7 | –
3 | CC(C)(O)c1cn2c(-c3cccc(N[C@H]4CNCC[C@@H]4F)n3)cnc2cn1 [Compound 31, 2-(3-(6-(((3S,4S)-4-fluoropiperidin-3-yl)amino)pyridin-2-yl)imidazo[1,2-a]pyrazin-6-yl)propan-2-ol] | −150.3956 | –
4 | O=C1CCCN1c1cn2c(-c3cccc(N[C@H]4CNCC[C@@H]4F)n3)cnc2cn1 [Compound 119, 1-(3-(6-(((3S,4S)-4-fluoropiperidin-3-yl)amino)pyridin-2-yl)imidazo[1,2-a]pyrazin-6-yl)pyrrolidin-2-one] | −762 | –
5 | F[C@H]1CNC[C@@H]1Nc1cccc(-c2cnc3cnc(C4CC4)cn23)n1 [Compound 50, 6-(6-cyclopropylimidazo[1,2-a]pyrazin-3-yl)-N-((3S,4S)-4-fluoropyrrolidin-3-yl)pyridin-2-amine] | −552 | –
6 | O=C1NCCN1c1cn2c(-c3cccc(N[C@H]4CNCC[C@@H]4F)n3)cnc2cn1 [Compound 118, 1-(3-(6-(((3S,4S)-4-fluoropiperidin-3-yl)amino)pyridin-2-yl)imidazo[1,2-a]pyrazin-6-yl)imidazolidin-2-one] | −550.9 | –
7 | FC(F)c1cn2c(-c3cccc(N[C@H]4CNCC[C@@H]4F)n3)cnc2cn1 [Compound 25, 6-(6-(difluoromethyl)imidazo[1,2-a]pyrazin-3-yl)-N-((3S,4S)-4-fluoropiperidin-3-yl)pyridin-2-amine] | −834.6 | Synergistic
8 | CC(O)(c1cn2c(-c3cccc(N[C@H]4CNCC[C@@H]4F)n3)cnc2cn1)C(F)(F)F (single isomer, unassigned) [Compound 82] | −155.8 | –
9 | CC(C)(O)c1cn2c(-c3nc(N[C@H]4CNCC[C@@H]4F)c(F)cc3F)cnc2cn1 [Compound 35, 2-(3-(3,5-difluoro-6-(((3S,4S)-4-fluoropiperidin-3-yl)amino)pyridin-2-yl)imidazo[1,2-a]pyrazin-6-yl)propan-2-ol] | 386.4 | Antagonistic
10 | F[C@H]1CCNC[C@@H]1Nc1cccc(-c2cnc3cnc(C4CC4)cn23)n1 [Compound 51, 6-(6-cyclopropylimidazo[1,2-a]pyrazin-3-yl)-N-((3S,4S)-4-fluoropiperidin-3-yl)pyridin-2-amine] | −644.5 | –
